Assay results: patent US9744188B2, “Methods of promoting neuronal outgrowth by gypican 2 that binds to receptor protein tyrosine phosphatase sigma” (PRESIDENT AND FELLOWS OF HARVARD COLLEGE, priority 2011, dated 2017)

Tests used:
[1] = molecular target: T1, DLAR Ig1-FN3 (Drosophila melanogaster, UniProt P16621); assay: SEC-MALS, heparin-induced oligomerisation of DLAR; format: biochemical
T1 construct: hexahistidine (C); made in house; host or cells: HEK-293T cells with kifunensine or GnTI- HEK293S cells
T1 sequence (P16621 33-606): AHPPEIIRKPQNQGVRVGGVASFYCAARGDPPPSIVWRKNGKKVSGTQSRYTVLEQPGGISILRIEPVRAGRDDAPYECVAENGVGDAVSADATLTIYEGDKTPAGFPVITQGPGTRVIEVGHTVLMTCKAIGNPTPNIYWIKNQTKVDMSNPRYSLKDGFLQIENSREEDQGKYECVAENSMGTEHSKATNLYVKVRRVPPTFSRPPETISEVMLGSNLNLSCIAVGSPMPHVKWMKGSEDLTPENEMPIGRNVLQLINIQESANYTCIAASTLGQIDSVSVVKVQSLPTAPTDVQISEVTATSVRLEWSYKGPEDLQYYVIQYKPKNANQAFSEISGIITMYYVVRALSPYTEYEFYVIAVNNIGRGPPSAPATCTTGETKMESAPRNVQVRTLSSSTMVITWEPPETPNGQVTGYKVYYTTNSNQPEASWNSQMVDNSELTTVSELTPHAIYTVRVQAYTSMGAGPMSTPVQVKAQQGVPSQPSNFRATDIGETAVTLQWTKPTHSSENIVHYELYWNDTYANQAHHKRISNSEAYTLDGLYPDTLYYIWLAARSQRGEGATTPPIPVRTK
Description: MALS experiments were carried out on a […] System (Wyatt Technologies). All proteins were purified as described above, and samples were incubated alone or with an oligosaccharide ligand for an hour at room temperature prior to use in MALS analysis. For size defined heparin fragments (Iduron dp4-dp30; product codes HO04-HO30) a five-fold molar excess of oligosaccharide to protein was used, except for the series of experiments presented in FIG. 13, where a range of RPTPσ constructs were tested with a separate batch of dp10 at a two-fold molar excess (FIG. 37, highlighted in blue). Equivalent amounts (equal mg/ml concentrations) of HS (Iduron, GAG-HS01) and CS (Sigma, C4384) were used for MALS experiments as had been for heparin dp10 (in giving a five-fold molar excess). […] All Ig1-FN3 proteins were injected at approximately 10 μM. Size exclusion chromatography was performed in 10 mM Tris, 50 mM NaCl, pH 7.5 on a Superdex75 or Superdex200 HR10/30 column (GE Healthcare), attached to an Agilent chromatography system. An Optilab rEX Refractive Index detector and a Dawn Helios II Multi-Angle Light Scattering (MALS) detector recorded the refractive index and light scattering of the samples upon elution from the size exclusion column. The Wyatt software ASTRA was used to analyse all the data collected.

[2] = molecular target: Mouse RPTPσ sEcto-Fc (mouse) (UniProt B0V2N1); assay: solid phase binding assay, immobilised mouse RPTPσ sEcto-Fc, bound AP activity; Kd from the binding curve, one-to-one binding assumed; Scatchard inset

Question: For Heparin, which “oligomerisation of DLAR Ig1-FN3” value [1] is on record?
Answer: The value was “promotes the oligomerisation”.

B1: Glypican-2-AP (protein, mouse, UniProt Q8BKV1 22-555, looked up, not shown: large carriers)
chain: HGSEAKVVRSCAETRQVLGARGYSLNLIPPSLISGEHLQVCPQEYTCCSSETEQKLIRDAEVTFRGLVEDSGSFLIHTLAARHRKFNEFFREMLSISQHSLAQLFSHSYGRLYSQHAVIFNSLFSGLRDYYEKSGEGLDDTLADFWAQLLERAFPLLHPQYSFPPDFLLCLTRLTSTADGSLQPFGDSPRRLRLQISRALVAARALVQGLETGRNVVSEALKVPVLEGCRQALMRLIGCPLCRGVPSLMPCRGFCLNVAHGCLSSRGLEPEWGGYLDGLLLLAEKLQGPFSFELAAESIGVKISEGLMHLQENSVKVSAKVFQECGTPHPVQSRSRRAPAPREEASRSWRASAEEERPTTAAGTNLHRLVWELRERLSRVRGFWAGLPVTVCGDSRMAADLSQETAPCWTGVGRGRYMSPVVVGSLNEQLHNPELDTSSPDVPTRRRRLHLRAATARMKAAALGQDLDMHDADEDASGSGGGQQYADDWKAGAVPVVPPARPPRPPRPPRRDGLGVRGGSGSARYNQGRSRNLG
modifications: carries heparan sulfate GAG chains (removed by heparitinase III)
Question: How did the Kd [2] turn out when B1 was run?
Answer: Its Kd is 10.5 nM.
